Laboratory results published in US8802597B2, “Herbicidal pyrimidines” (E I du Pont de Nemours and Company, priority 2003, dated 2014).
Like-named read-outs stand apart in the source and are kept apart here.

Tests used:
Test in all cases: Test C pre/postemergence
Assay type in all cases: in vivo
[1] = test system: kochia (Kochia scoparia); settings: Bassia scoparia, pre-emergence, Preemergence, scale 0 to 100, read-out: Plant response rating, Kochia
How it was run: (§1)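 Rating scale 0–100: 0 means no effect, 100 complete control; taken visually 12 to 14 days post-treatment versus controls. Pre- and postemergence greenhouse applications, postemergence at 1- to 4-leaf stage, non-phytotoxic solvent with surfactant as carrier.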

[2] = test system: goosegrass (Eleusine indica); settings: Eleusine indica; for pest or weed control at 31 g/ha: 31 g ai/ha; for pest or weed control at 62 g/ha: 62 g ai/ha; for pest or weed control at 125 g/ha: 125 g ai/ha; for pest or weed control at 250 g/ha: 250 g ai/ha
How it was run: as §1

[3] = test system: common (oilseed) sunflower (Helianthus annuus); settings: Helianthus annuus, pre-emergence, Preemergence, read-out: Plant response rating, Sunflower
How it was run: as §1

[4] = test system: woolly cupgrass (Eriochloa villosa); settings: Eriochloa villosa; for pest or weed control at 31 g/ha: 31 g ai/ha; for pest or weed control at 62 g/ha: 62 g ai/ha; for pest or weed control at 125 g/ha: 125 g ai/ha; for pest or weed control at 250 g/ha: 250 g ai/ha
How it was run: as §1

[5] = test system: morningglory (Ipomoea coccinea); settings: Ipomoea; for pest or weed control at 31 g/ha: 31 g ai/ha; for pest or weed control at 62 g/ha: 62 g ai/ha; for pest or weed control at 125 g/ha: 125 g ai/ha; for pest or weed control at 250 g/ha: 250 g ai/ha
How it was run: as §1

[6] = test system: pigweed (Amaranthus retroflexus); settings: Amaranthus retroflexus; for pest or weed control at 31 g/ha: 31 g ai/ha; for pest or weed control at 62 g/ha: 62 g ai/ha; for pest or weed control at 125 g/ha: 125 g ai/ha; for pest or weed control at 250 g/ha: 250 g ai/ha
How it was run: as §1

[7] = test system: giant foxtail (Setaria faberii); settings: Setaria faberi; for pest or weed control at 125 g/ha: 125 g ai/ha; for pest or weed control at 31 g/ha: 31 g ai/ha; for pest or weed control at 62 g/ha: 62 g ai/ha; for pest or weed control at 250 g/ha: 250 g ai/ha
How it was run: as §1

[8] = post-emergence, Postemergence, scale 0 to 100 (0 no effect, 100 complete control), read-out: Goosegrass plant response rating
[9] = pre-emergence, Preemergence, scale 0 to 100, 0 no effect, 100 complete control, read-out: Plant response rating, Goosegrass
[10] = pre-emergence, Preemergence, scale 0 to 100, read-out: Plant response rating, Goosegrass
[11] = post-emergence, Postemergence, scale 0 to 100 (0 no effect, 100 complete control), read-out: Cupgrass, Woolly plant response rating
[12] = pre-emergence, Preemergence, scale 0 to 100, 0 no effect, 100 complete control, read-out: Plant response rating, Cupgrass, Woolly
[13] = pre-emergence, Preemergence, scale 0 to 100, read-out: Plant response rating, Cupgrass, Woolly
[14] = post-emergence, Postemergence, scale 0 to 100 (0 no effect, 100 complete control), read-out: Morningglory plant response rating
[15] = pre-emergence, Preemergence, scale 0 to 100, 0 no effect, 100 complete control, read-out: Plant response rating, Morningglory
[16] = pre-emergence, Preemergence, scale 0 to 100, read-out: Plant response rating, Morningglory
[17] = post-emergence, Postemergence, scale 0 to 100 (0 no effect, 100 complete control), read-out: Pigweed plant response rating
[18] = pre-emergence, Preemergence, scale 0 to 100, 0 no effect, 100 complete control, read-out: Plant response rating, Pigweed
[19] = pre-emergence, Preemergence, scale 0 to 100, read-out: Plant response rating, Pigweed
[20] = post-emergence, Postemergence, scale 0 to 100 (0 no effect, 100 complete control), read-out: Foxtail, Giant plant response rating
[21] = pre-emergence, Preemergence, scale 0 to 100, 0 no effect, 100 complete control, read-out: Plant response rating, Foxtail, Giant
[22] = pre-emergence, Preemergence, scale 0 to 100, read-out: Plant response rating, Foxtail, Giant

CCOC(=O)c1nc(C2CC2)nc(N)c1F [Compound 30]
pest or weed control at 125 g/ha ([1]; 125 g ai/ha): 70% | pest or weed control at 250 g/ha ([1]; 250 g ai/ha): 90% | pest or weed control at 31 g/ha ([2]; post-emergence, Postemergence, read-out: Plant response rating (scale of 0 to 100), Goosegrass): 0% | pest or weed control at 62 g/ha [2, 8]: 0% | pest or weed control at 125 g/ha [2, 8]: 0% | pest or weed control at 250 g/ha ([2]; post-emergence, Postemergence, scale 0 to 100, read-out: Plant response rating, Goosegrass): 0% | pest or weed control at 31 g/ha [2, 9]: 0% | pest or weed control at 62 g/ha [2, 9]: 30% | pest or weed control at 125 g/ha [2, 10]: 35% | pest or weed control at 250 g/ha [2, 10]: 50% | pest or weed control at 31 g/ha ([3]; 31 g ai/ha, scale 0 to 100, 0 no effect, 100 complete control): 20% | pest or weed control at 62 g/ha ([3]; 62 g ai/ha, scale 0 to 100, 0 no effect, 100 complete control): 80% | pest or weed control at 125 g/ha ([3]; 125 g ai/ha, scale 0 to 100): 90% | pest or weed control at 250 g/ha ([3]; 250 g ai/ha, scale 0 to 100): 90% | pest or weed control at 31 g/ha ([4]; post-emergence, Postemergence, read-out: Plant response rating (scale of 0 to 100), Cupgrass, Woolly): 0% | pest or weed control at 62 g/ha [4, 11]: 0% | pest or weed control at 125 g/ha [4, 11]: 0% | pest or weed control at 250 g/ha ([4]; post-emergence, Postemergence, scale 0 to 100, read-out: Plant response rating, Cupgrass, Woolly): 40% | pest or weed control at 31 g/ha [4, 12]: 0% | pest or weed control at 62 g/ha [4, 12]: 5% | pest or weed control at 125 g/ha [4, 13]: 45% | pest or weed control at 250 g/ha [4, 13]: 50% | pest or weed control at 31 g/ha ([5]; post-emergence, Postemergence, read-out: Plant response rating (scale of 0 to 100), Morningglory): 90% | pest or weed control at 62 g/ha [5, 14]: 90% | pest or weed control at 125 g/ha [5, 14]: 95% | pest or weed control at 250 g/ha ([5]; post-emergence, Postemergence, scale 0 to 100, read-out: Plant response rating, Morningglory): 95% | pest or weed control at 31 g/ha [5, 15]: 0% | pest or weed control at 62 g/ha [5, 15]: 85% | pest or weed control at 125 g/ha [5, 16]: 90% | pest or weed control at 250 g/ha [5, 16]: 100% | pest or weed control at 31 g/ha ([6]; post-emergence, Postemergence, read-out: Plant response rating (scale of 0 to 100), Pigweed): 60% | pest or weed control at 62 g/ha [6, 17]: 70% | pest or weed control at 125 g/ha [6, 17]: 80% | pest or weed control at 250 g/ha ([6]; post-emergence, Postemergence, scale 0 to 100, read-out: Plant response rating, Pigweed): 90% | pest or weed control at 31 g/ha [6, 18]: 0% | pest or weed control at 62 g/ha [6, 18]: 30% | pest or weed control at 125 g/ha [6, 19]: 80% | pest or weed control at 250 g/ha [6, 19]: 90% | pest or weed control at 125 g/ha [7, 20]: 0% | pest or weed control at 31 g/ha ([7]; post-emergence, Postemergence, read-out: Plant response rating (scale of 0 to 100), Foxtail, Giant): 0% | pest or weed control at 62 g/ha [7, 20]: 0% | pest or weed control at 250 g/ha ([7]; post-emergence, Postemergence, scale 0 to 100, read-out: Plant response rating, Foxtail, Giant): 40% | pest or weed control at 31 g/ha [7, 21]: 0% | pest or weed control at 62 g/ha [7, 21]: 0% | pest or weed control at 125 g/ha [7, 22]: 20% | pest or weed control at 250 g/ha [7, 22]: 60%
